Measurements: ChEMBL document CHEMBL3885881, “DrugMatrix”

Species on record: Rattus norvegicus
Test: DrugMatrix - Regimen: Daily Repeat
Assay type: toxicity, organism-based, Sprague-Dawley
Parameters: regimen Daily Repeat, gender Male, age 6-8 weeks
Conditions: in vivo, po, 0 mg/kg, route oral GAVAGE, dose level Control, […]; for ABSOLUTE BASOPHIL / ABSOLUTE EOSINOPHIL / ABSOLUTE LYMPHOCYTE / ABSOLUTE MONOCYTE / ABSOLUTE SEGMENTED NEUTROPHIL / BASOPHIL / EOSINOPHIL / ERYTHROCYTE COUNT / HEMATOCRIT / HEMOGLOBIN / LEUKOCYTE COUNT / LYMPHOCYTE / MEAN CORPUSCULAR HEMOGLOBIN / MEAN CORPUSCULAR HEMOGLOBIN CONCENTRATION / MEAN CORPUSCULAR VOLUME / MONOCYTE / NEUTROPHIL / NUCLEATED RED BLOOD CELLS / PLATELET COUNT: tissue Blood; for ALANINE AMINOTRANSFERASE / ALBUMIN / ALKALINE PHOSPHATASE / ASPARTATE AMINOTRANSFERASE / BLOOD UREA NITROGEN / CARBON DIOXIDE / CHLORIDE / CHOLESTEROL / CREATINE PHOSPHOKINASE / CREATININE / GLUCOSE / LACTATE DEHYDROGENASE / LIPASE / PHOSPHORUS / POTASSIUM / SODIUM / TOTAL BILIRUBIN / TOTAL PROTEIN / URIC ACID: tissue Plasma

CC(=O)Oc1ccccc1C(=O)O [ASPIRIN]
ABSOLUTE BASOPHIL (72 h, time 3 day): 0 CELLS/uL
ABSOLUTE EOSINOPHIL (72 h, time 3 day): 0 CELLS/uL
ABSOLUTE LYMPHOCYTE (72 h, time 3 day): 6275.67 CELLS/uL
ABSOLUTE MONOCYTE (72 h, time 3 day): 40.67 CELLS/uL
ABSOLUTE SEGMENTED NEUTROPHIL (72 h, time 3 day): 633.67 CELLS/uL
BASOPHIL (72 h, time 3 day): 0%
EOSINOPHIL (72 h, time 3 day): 0%
ERYTHROCYTE COUNT (72 h, time 3 day): 5.2 x10E6/uL
HEMATOCRIT (72 h, time 3 day): 32.78%
HEMOGLOBIN (72 h, time 3 day): 12.98 G/DL
LEUKOCYTE COUNT (72 h, time 3 day): 6.95 x10E3/uL
LYMPHOCYTE (72 h, time 3 day): 90.17%
MEAN CORPUSCULAR HEMOGLOBIN (72 h, time 3 day): 24.97 pg
MEAN CORPUSCULAR HEMOGLOBIN CONCENTRATION (72 h, time 3 day): 39.62 G/DL
MEAN CORPUSCULAR VOLUME (72 h, time 3 day): 63.03 fL
MONOCYTE (72 h, time 3 day): 0.67%
NEUTROPHIL (72 h, time 3 day): 9.17%
NUCLEATED RED BLOOD CELLS (72 h, time 3 day): 0 /100WBC
PLATELET COUNT (72 h, time 3 day): 1082.83 x10E3/uL
ALANINE AMINOTRANSFERASE (72 h, time 3 day): 69.67 u/L
ALBUMIN (72 h, time 3 day): 4.15 G/DL
ALKALINE PHOSPHATASE (72 h, time 3 day): 430.5 u/L
ASPARTATE AMINOTRANSFERASE (72 h, time 3 day): 90.83 u/L
BLOOD UREA NITROGEN (72 h, time 3 day): 13 mg/dL
CARBON DIOXIDE (72 h, time 3 day): 33 mmol/L
CHLORIDE (72 h, time 3 day): 99.17 MEQ/L
CHOLESTEROL (72 h, time 3 day): 70.5 mg/dL
CREATINE PHOSPHOKINASE (72 h, time 3 day): 253.33 u/L
CREATININE (72 h, time 3 day): 0.13 mg/dL
GLUCOSE (72 h, time 3 day): 157.17 mg/dL
LACTATE DEHYDROGENASE (72 h, time 3 day): 85 u/L
LIPASE (72 h, time 3 day): 10 u/L
PHOSPHORUS (72 h, time 3 day): 10.2 mg/dL
POTASSIUM (72 h, time 3 day): 5.78 MEQ/L
SODIUM (72 h, time 3 day): 144.12 MEQ/L
TOTAL BILIRUBIN (72 h, time 3 day): 0.2 mg/dL
TOTAL PROTEIN (72 h, time 3 day): 5.8 G/DL
URIC ACID (72 h, time 3 day): 0.8 mg/dL
ABSOLUTE BASOPHIL (120 h, time 5 day): 0 CELLS/uL
ABSOLUTE EOSINOPHIL (120 h, time 5 day): 0 CELLS/uL
ABSOLUTE LYMPHOCYTE (120 h, time 5 day): 10431 CELLS/uL
ABSOLUTE MONOCYTE (120 h, time 5 day): 90.5 CELLS/uL
ABSOLUTE SEGMENTED NEUTROPHIL (120 h, time 5 day): 1111.83 CELLS/uL
BASOPHIL (120 h, time 5 day): 0%
EOSINOPHIL (120 h, time 5 day): 0%
ERYTHROCYTE COUNT (120 h, time 5 day): 5.51 x10E6/uL
HEMATOCRIT (120 h, time 5 day): 34.67%
HEMOGLOBIN (120 h, time 5 day): 13.5 G/DL
LEUKOCYTE COUNT (120 h, time 5 day): 11.63 x10E3/uL
LYMPHOCYTE (120 h, time 5 day): 89.67%
MEAN CORPUSCULAR HEMOGLOBIN (120 h, time 5 day): 24.5 pg
MEAN CORPUSCULAR HEMOGLOBIN CONCENTRATION (120 h, time 5 day): 38.95 G/DL
MEAN CORPUSCULAR VOLUME (120 h, time 5 day): 62.87 fL
MONOCYTE (120 h, time 5 day): 0.67%
NEUTROPHIL (120 h, time 5 day): 9.67%
NUCLEATED RED BLOOD CELLS (120 h, time 5 day): 0 /100WBC
PLATELET COUNT (120 h, time 5 day): 1052.67 x10E3/uL
ALANINE AMINOTRANSFERASE (120 h, time 5 day): 54.67 u/L
ALBUMIN (120 h, time 5 day): 4.15 G/DL
ALKALINE PHOSPHATASE (120 h, time 5 day): 359.83 u/L
ASPARTATE AMINOTRANSFERASE (120 h, time 5 day): 83 u/L
BLOOD UREA NITROGEN (120 h, time 5 day): 13.5 mg/dL
CARBON DIOXIDE (120 h, time 5 day): 27.17 mmol/L
CHLORIDE (120 h, time 5 day): 98.5 MEQ/L
CHOLESTEROL (120 h, time 5 day): 66.83 mg/dL
CREATINE PHOSPHOKINASE (120 h, time 5 day): 256.17 u/L
CREATININE (120 h, time 5 day): 0.19 mg/dL
GLUCOSE (120 h, time 5 day): 171.33 mg/dL
LACTATE DEHYDROGENASE (120 h, time 5 day): 91.5 u/L
LIPASE (120 h, time 5 day): 10.5 u/L
PHOSPHORUS (120 h, time 5 day): 8.72 mg/dL
POTASSIUM (120 h, time 5 day): 5.34 MEQ/L
SODIUM (120 h, time 5 day): 142.53 MEQ/L
TOTAL BILIRUBIN (120 h, time 5 day): 0.2 mg/dL
TOTAL PROTEIN (120 h, time 5 day): 6.05 G/DL
URIC ACID (120 h, time 5 day): 0.6 mg/dL
